Data published in publication PMC11850127 (The Journal of Biological Chemistry, 2025).
Entries after “also recorded” stand apart in the source; their conditions may differ. Where two headings read alike, the source gives them in different places.

How the values were obtained:
[V13′T]α10 nAChR = type: cell-based, human (expressed in Xenopus laevis oocytes)
(α4)2(β2)3 = settings: cited from earlier work
homomeric α9 nAChRs [1] = settings: cited from earlier work
homomeric α9 nAChRs [2] = settings: cited from earlier work; remark: listed apart in the source
[3] = tested on: uninjected oocytes and oocytes injected with RIC-3 alone; type: cell-based, Xenopus laevis
[V13′T]α10 nAChRs [4] = biological target: T1, [V13′T]α10 nAChRs (Homo sapiens, UniProt Q9GZZ6, V280T); test: cell-based; type: cell-based, human (expressed in Xenopus laevis oocytes)
T1 sequence (Q9GZZ6 25-450 V280T limits assumed): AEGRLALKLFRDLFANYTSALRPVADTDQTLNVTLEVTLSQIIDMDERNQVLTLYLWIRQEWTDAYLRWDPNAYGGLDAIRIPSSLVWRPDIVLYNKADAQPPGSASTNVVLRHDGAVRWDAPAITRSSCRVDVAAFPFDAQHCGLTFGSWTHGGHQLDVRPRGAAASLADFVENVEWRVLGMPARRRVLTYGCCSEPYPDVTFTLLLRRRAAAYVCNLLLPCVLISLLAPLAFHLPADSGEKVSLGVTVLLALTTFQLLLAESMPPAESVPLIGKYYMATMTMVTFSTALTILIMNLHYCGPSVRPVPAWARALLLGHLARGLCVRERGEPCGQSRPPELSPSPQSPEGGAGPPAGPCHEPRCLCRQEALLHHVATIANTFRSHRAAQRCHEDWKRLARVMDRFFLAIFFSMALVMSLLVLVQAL

(α4)3(β2)2 = settings: cited from earlier work
human α10 nAChR = type: cell-based, human (expressed in Xenopus laevis oocytes)
α9α10 nAChRs = settings: cited from earlier work
homomeric α7 nAChRs = settings: cited from earlier work
homomeric α10 nAChRs = settings: cited from earlier work
human α10 nAChRs = type: cell-based, human (expressed in Xenopus laevis oocytes)
[V13′T]α10 nAChRs [5] = biological target: T1, [V13′T]α10 nAChRs; type: cell-based, human (expressed in Xenopus laevis oocytes)
α9 homomers = settings: cited from earlier work
muscle type nAChRs = settings: cited from earlier work

Compound: CC(=O)OCC[N+](C)(C)C [ACh, Acetylcholine]
- effect of absence of Ca^2+ on ACh-evoked currents ([V13′T]α10 nAChR): did not substantially reduce ACh-evoked currents
- mean ACh-induced response without actinomycin D ([V13′T]α10 nAChR): −208 ± 227 nA
- range of ACh-induced response ([V13′T]α10 nAChR; n = 12): −117 to −1120 nA
- affinity for acetylcholine ((α4)2(β2)3): high
- ACh-induced currents (homomeric α9 nAChRs [1]): small currents
- ACh-induced currents (homomeric α9 nAChRs [2]): small currents
- ACh-induced current in uninjected oocytes ([3]; n = 10): did not produce currents; also recorded: No ACh-induced currents were observed
- ACh-induced current in oocytes injected with RIC-3 alone ([3]; n = 20): did not produce currents; also recorded: No ACh-induced currents were observed
- ACh-induced currents versus those induced by choline or nicotine ([V13′T]α10 nAChRs [4]): significantly larger
- Hill slope ([V13′T]α10 nAChRs [4]): 0.82 (0.67–1.01)
- affinity for acetylcholine ((α4)3(β2)2): low
- ACh-induced current, average amplitude (human α10 nAChR): 17 nA
- mean ACh-induced response (human α10 nAChR): −7 ± 6 nA
- response to ACh, α10 + RIC-3 versus α10 only (human α10 nAChR): significantly greater than those observed in α10-only injected oocytes; also recorded: significantly larger responses
- range of ACh-induced response (human α10 nAChR; n = 12): −2 to −24 nA

Compound: C[N+](C)(C)CCO [choline]
- EC50 ([V13′T]α10 nAChRs [4]): 200 µM
- Hill slope ([V13′T]α10 nAChRs [4]): 0.49 (0.41–0.60)
- agonist class ([V13′T]α10 nAChRs [4]): partial agonists
- efficacy of choline relative to nicotine ([V13′T]α10 nAChRs [4]): more efficacious than nicotine
- efficacy relative to ACh ([V13′T]α10 nAChRs [4]): lower efficacy than ACh

Compound: O=C1C[C@@H]2OCC=C3CN4CC[C@]56c7ccccc7N1[C@H]5[C@H]2[C@H]3C[C@H]46 [strychnine]
- block of α9α10 nAChRs by strychnine (α9α10 nAChRs): blocks
- block of homomeric α7 nAChRs by strychnine (homomeric α7 nAChRs): blocks
- enabling of function/expression of homomeric α10 nAChRs (homomeric α10 nAChRs): enable the expression of human α10 nAChRs; also recorded: enable functional expression of wild-type α10 homomers in oocytes; also recorded: can enable the function of homomeric α10 mammalian nAChRs
- effect of strychnine on α10 nAChR function, higher concentrations (human α10 nAChRs): block α10 nAChR function
- effect of strychnine on α10 plus RIC-3 oocytes, lower concentrations (human α10 nAChRs): further substantial increase in expression
- ACh-evoked response, percent of baseline ([V13′T]α10 nAChRs [5]): 572 ± 131%
- effect of strychnine at low concentrations ([V13′T]α10 nAChRs [5]): enhanced [V13′T]α10 responses to ACh
- effect of strychnine at the highest concentration ([V13′T]α10 nAChRs [5]): inhibitory effect; also recorded: almost entirely inhibited
- effect of strychnine on [V13′T]α10 + RIC-3 responses ([V13′T]α10 nAChRs [5]): further enhanced
- enhancement of ACh-evoked response ([V13′T]α10 nAChRs [5]): 572 ± 131%
- maximum enhancement of ACh responses ([V13′T]α10 nAChRs [5]): greater than 5 fold
- potentiation of ACh-evoked currents (in words) ([V13′T]α10 nAChRs [5]): rapid, significant potentiation
- strychnine concentration of maximum potentiation ([V13′T]α10 nAChRs [5]): 1 µM
- block of homomeric α9 nAChRs by strychnine (α9 homomers): blocks

Compound: CN1[C@@H]2CC[C@H]1C[C@@H](OC(=O)C(CO)c1ccccc1)C2 (stereo partly drawn) [atropine]
- ACh-evoked response, percent of baseline ([V13′T]α10 nAChRs [5]): 230 ± 44%
- enhancement of ACh-evoked response ([V13′T]α10 nAChRs [5]): 230 ± 44%
- onset and reversal of potentiation ([V13′T]α10 nAChRs [5]): rapid onset and reversal
- potentiation of ACh-evoked currents (in words) ([V13′T]α10 nAChRs [5]): rapid, significant potentiation

Compound: COc1cc2c(cc1OC)[C@@]13CCN4CC5=CCO[C@H]6CC(=O)N2[C@H]1[C@H]6[C@H]5C[C@H]43 [brucine]
- enabling of function/expression of homomeric α10 nAChRs (homomeric α10 nAChRs): can enable the function of homomeric α10 mammalian nAChRs

Compound: CCN1C[C@]2(COC(=O)c3ccccc3N3C(=O)C[C@H](C)C3=O)CC[C@H](OC)[C@@]34[C@@H]5C[C@H]6[C@H](OC)[C@@H]5[C@](O)(C[C@@H]6OC)[C@@](O)([C@@H](OC)[C@H]23)[C@@H]14 [methyllycaconitine]
- enabling of function/expression of homomeric α10 nAChRs (homomeric α10 nAChRs): can enable the function of homomeric α10 mammalian nAChRs

Compound: CN1CCC[C@H]1c1cccnc1 [nicotine]
- action of nicotine on wild-type α9α10 nAChRs (α9α10 nAChRs): antagonist
- EC50 ([V13′T]α10 nAChRs [4]): 350 µM
- Hill slope ([V13′T]α10 nAChRs [4]): 0.59 (0.49–0.69)
- agonist class ([V13′T]α10 nAChRs [4]): partial agonist
- efficacy relative to ACh ([V13′T]α10 nAChRs [4]): lower efficacy than ACh

Compound: dihydro-β-erythroidine
- effect on ACh-evoked response ([V13′T]α10 nAChRs [5]; 3 μM, 10 min, n = 5): no significant activity; also recorded: not significantly altered

Compound: α-bungarotoxin
- block of α9α10 nAChRs by α-bungarotoxin (α9α10 nAChRs): sensitive; also recorded: blocks
- block of α7 homomers by α-bungarotoxin (homomeric α7 nAChRs): blocks
- antagonist sensitivity of α10 homomers (human α10 nAChRs): blocked; also recorded: sensitive
- block of ACh-evoked current (human α10 nAChRs): completely blocked; also recorded: sensitive; also recorded: inhibited
- block of muscle type nAChRs by α-bungarotoxin (muscle type nAChRs): blocks
- Hill slope ([V13′T]α10 nAChRs [5]): −1.17
- IC50 ([V13′T]α10 nAChRs [5]): 0.331 µM
- sensitivity of α9 to α-bungarotoxin (α9 homomers): sensitive
